Assay results published in US20040209312A1, “Identifying and reducing the allergenicity of food proteins” (priority 2001, published 2004).

System: naïve human CD4+ T-cells and dendritic cells
Type: cell-based
Conditions: for T-cell epitope designation: Ber e 1 dataset, background 4.27%

| Substance | T-cell epitope designation (5 μM peptide) | percentage of the donor pool that responded with a baseline-normalized response of 2.95 or better (percent responders) (Ber e 1 15-mer peptide set, 5 μM peptide, human donors) | positive control response (T-cell proliferation) (positive control antigen in all tests reported) |
| --- | --- | --- | --- |
| LEGMDESCRCEGLRM [peptide #12] | minor epitopes |  |  |
| LRMMMMRMQQEEMQP [Peptide # 16] | does not reach any epitope designation |  |  |
| MQPRGEQMRRMMRLA [peptide #20] | minor epitopes |  |  |
| RQQMLSHCRMYMRQQ [peptide #4] | reached the three-fold cut-off | 18.48% |  |
| tetanus toxoid: positive control antigen in the T-cell proliferation assay [reference compound] |  |  | robust positive control responses |
